Reference: ChEMBL document CHEMBL5727461, “Heterocyclic compounds and uses thereof” (2019)

Target: Bromodomain-containing protein 4 (Homo sapiens, UniProt O60885)
Assay: Alphascreen Binding Assay: Binding of compounds of formula (I) with bromodomain 2, 3 4 was assessed using Alphascreen binding assay. The inhibition of the interaction between bromodomain and its acetylated target protein (Filippakopoulos P et al. 2012) was measured quantitatively using recombinant BRD proteins, an acetylated Histone 4 peptide and AlphaScreen technology. In absence of inhibition the BRD protein bound to AlphaScreen nickel chelate acceptor beads can interact with the acetylated Histone 4 peptide which is immobilized by the AlphaScreen Streptavidin coated beads. This interaction brings donor and acceptor beads in proximity. The close proximity allows the singlet oxygen produced by laser excitation of the donor beads to reach the acceptor beads and generate a luminescence signal. BRD inhibitors result in a decrease in the proximity signal through an inhibition of the BRD-acetylated peptide interaction.Recombinant human bromodomains containing the N-terminal bromodomain (BRD2-BD1 (71-194), BRD3-BD1 (24-144) and BRD4-BD1 (44-164)) or dual bromodomains (BRD4-BD12 (1-477), BRD4-BD12 (1-472)) were prepared and purified as described in protein expression and purification session.

IC50: < 1000 nM
SMILES: Cc1noc(C)c1-c1cnc2c(c1)c(CC1CCN(S(=O)(=O)c3ccccc3)CC1)cn2C
